From patent US20230212142A9, “Substituted 5-Cyclopropyl-1H-pyrazole-3-yl-amine Derivatives as Selective CDK12/13 Inhibitors” (Aurigene Discovery Technologies Limited, priority 2019, published 2023)

Tests used:
[1] = molecular target: CDK13 (Homo sapiens, UniProt Q14004); assay: Biochemical assay for CDK13 (LanthaScreen Eu Kinase Binding Assay); conditions: kinase tracer 236 100 nM, CDK13 5 nM
Procedure: LanthaScreen Eu Kinase Binding Assays are based on the binding and displacement of Alexa Fluor 647-labeled, ATP-competitive kinase inhibitor scaffold (kinase tracer) to the kinase of interest. Binding of the kinase tracer 236 (100 nM) to the CDK13 (5 nM) kinase is detected using a europium-labelled anti- GST tag antibody (2 nM), which binds to the kinase. Simultaneous binding of the tracer and antibody to the kinase results in a high degree of FRET (fluorescence resonance energy transfer) from the europium (Eu) donor fluorophore to the Alexa Fluor™ 647 acceptor fluorophore on the kinase tracer. Binding of an inhibitor to the kinase competes for binding with the tracer, resulting in a loss of FRET signal.

[2] = molecular target: CDK12 (Homo sapiens, UniProt Q9NYV4); assay: Biochemical assay for CDK12 (kinase-tagged phage / qPCR competition binding); set-up: host or cells: E. coli BL21-derived host (T7 phage display) or HEK-293
Sequence of CDK12 (Q9NYV4 whole entry, species assumed): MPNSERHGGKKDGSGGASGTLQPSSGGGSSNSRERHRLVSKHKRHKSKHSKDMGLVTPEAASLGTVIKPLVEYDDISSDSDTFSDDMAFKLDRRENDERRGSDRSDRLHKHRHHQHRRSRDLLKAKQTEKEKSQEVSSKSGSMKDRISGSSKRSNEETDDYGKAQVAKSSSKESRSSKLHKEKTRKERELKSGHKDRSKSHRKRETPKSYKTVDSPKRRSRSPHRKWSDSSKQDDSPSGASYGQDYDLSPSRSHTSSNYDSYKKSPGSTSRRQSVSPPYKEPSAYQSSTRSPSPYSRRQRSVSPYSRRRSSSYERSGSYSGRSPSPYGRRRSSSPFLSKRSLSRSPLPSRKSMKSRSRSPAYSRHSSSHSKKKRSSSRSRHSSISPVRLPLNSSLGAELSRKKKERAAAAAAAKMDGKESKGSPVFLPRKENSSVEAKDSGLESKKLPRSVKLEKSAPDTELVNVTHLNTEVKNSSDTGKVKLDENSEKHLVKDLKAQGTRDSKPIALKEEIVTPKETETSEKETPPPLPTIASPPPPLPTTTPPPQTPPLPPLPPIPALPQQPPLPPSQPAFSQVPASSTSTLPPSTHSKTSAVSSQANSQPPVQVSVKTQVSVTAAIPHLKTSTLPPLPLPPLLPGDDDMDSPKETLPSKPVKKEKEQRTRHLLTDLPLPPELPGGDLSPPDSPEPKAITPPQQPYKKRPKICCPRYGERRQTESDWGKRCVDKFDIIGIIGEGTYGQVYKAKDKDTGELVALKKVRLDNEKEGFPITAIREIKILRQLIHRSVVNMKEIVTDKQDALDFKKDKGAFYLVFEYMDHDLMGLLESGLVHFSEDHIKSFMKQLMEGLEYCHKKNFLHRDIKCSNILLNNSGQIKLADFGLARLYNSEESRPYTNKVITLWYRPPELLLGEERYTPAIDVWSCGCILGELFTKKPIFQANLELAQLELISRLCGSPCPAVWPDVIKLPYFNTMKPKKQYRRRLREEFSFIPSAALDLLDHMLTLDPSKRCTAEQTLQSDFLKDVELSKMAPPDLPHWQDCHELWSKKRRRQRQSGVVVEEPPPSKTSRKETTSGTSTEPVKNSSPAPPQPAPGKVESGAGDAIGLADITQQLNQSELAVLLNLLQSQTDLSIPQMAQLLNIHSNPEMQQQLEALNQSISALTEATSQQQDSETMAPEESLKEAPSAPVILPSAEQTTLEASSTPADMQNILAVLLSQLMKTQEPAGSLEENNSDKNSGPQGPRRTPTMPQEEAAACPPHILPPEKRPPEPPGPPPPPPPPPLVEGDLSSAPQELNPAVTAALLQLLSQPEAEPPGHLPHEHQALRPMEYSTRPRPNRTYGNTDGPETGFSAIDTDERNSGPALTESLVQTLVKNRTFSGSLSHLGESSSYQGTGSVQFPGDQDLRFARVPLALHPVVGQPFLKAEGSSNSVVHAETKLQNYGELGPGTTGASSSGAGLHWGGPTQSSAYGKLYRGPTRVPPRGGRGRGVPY
Procedure: Kinase-tagged T7 phage strains were grown in parallel in 24-well blocks in an E. coli host derived from the BL21 strain. E. coli were grown to log-phase and infected with T7 phage from a frozen stock (multiplicity of infection=0.4) and incubated with shaking at 32° C. until lysis (90-150 minutes). The lysates were centrifuged (6,000×g) and filtered (0.2 μm) to remove cell debris. The remaining kinases were produced in HEK-293 cells and subsequently tagged with DNA for qPCR detection. Streptavidin-coated magnetic beads were treated with biotinylated small molecule ligands for 30 minutes at room temperature to generate affinity resins for kinase assays. The liganded beads were blocked with excess biotin and washed with blocking buffer (SeaBlock (Pierce), 1% BSA, 0.05% Tween 20, 1 mM
DTT) to remove unbound ligand and to reduce non-specific phage binding. Binding reactions were assembled by combining kinases, liganded affinity beads, and test compounds in lx binding buffer (20% SeaBlock, 0.17×PBS, 0.05% Tween 20, 6 mM DTT). Test compounds were prepared as 40× stocks in 100% DMSO and directly diluted into the assay. All reactions were performed in polypropylene 384-well plates in a final volume of 0.02 ml. The assay plates were incubated at room temperature with shaking for 1 hour and the affinity beads were washed with wash buffer (1 PBS, 0.05% Tween 20). The beads were then re-suspended in elution buffer (1× PBS, 0.05% Tween 20, 0.5 μM non-biotinylated affinity ligand) and incubated at room temperature with shaking for 30 minutes. The kinase concentration in the eluates was measured by qPCR.

[3] = molecular target: CDK7 (Homo sapiens, UniProt P50613); assay: Biochemical assay for CDK7 (LANCE TR-FRET, ULight-MBP phosphorylation); conditions: CDK7 10 nM, ATP 1 mM/100 μM, 60 min pre-incubation
Sequence of CDK7 (P50613 whole entry, species assumed): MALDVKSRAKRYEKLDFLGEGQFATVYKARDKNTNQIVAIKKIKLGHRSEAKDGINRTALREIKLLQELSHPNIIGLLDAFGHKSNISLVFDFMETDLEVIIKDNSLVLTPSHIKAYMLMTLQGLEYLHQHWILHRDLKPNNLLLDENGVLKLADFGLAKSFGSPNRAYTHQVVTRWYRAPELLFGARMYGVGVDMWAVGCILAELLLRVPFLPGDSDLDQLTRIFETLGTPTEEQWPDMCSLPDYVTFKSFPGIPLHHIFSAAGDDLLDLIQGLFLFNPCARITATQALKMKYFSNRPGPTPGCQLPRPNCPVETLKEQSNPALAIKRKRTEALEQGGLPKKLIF
Sequence of CDK7 (P51946 whole entry partner, species assumed): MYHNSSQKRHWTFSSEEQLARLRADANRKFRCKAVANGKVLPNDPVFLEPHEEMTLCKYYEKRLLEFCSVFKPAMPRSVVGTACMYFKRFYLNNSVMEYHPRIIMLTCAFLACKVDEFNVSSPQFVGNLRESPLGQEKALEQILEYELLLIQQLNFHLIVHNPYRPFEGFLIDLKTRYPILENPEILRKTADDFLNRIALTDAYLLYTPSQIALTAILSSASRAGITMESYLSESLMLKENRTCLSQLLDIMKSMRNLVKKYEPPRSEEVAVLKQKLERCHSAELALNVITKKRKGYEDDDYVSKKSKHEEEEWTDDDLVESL
Sequence of CDK7 (P51948 whole entry partner, species assumed): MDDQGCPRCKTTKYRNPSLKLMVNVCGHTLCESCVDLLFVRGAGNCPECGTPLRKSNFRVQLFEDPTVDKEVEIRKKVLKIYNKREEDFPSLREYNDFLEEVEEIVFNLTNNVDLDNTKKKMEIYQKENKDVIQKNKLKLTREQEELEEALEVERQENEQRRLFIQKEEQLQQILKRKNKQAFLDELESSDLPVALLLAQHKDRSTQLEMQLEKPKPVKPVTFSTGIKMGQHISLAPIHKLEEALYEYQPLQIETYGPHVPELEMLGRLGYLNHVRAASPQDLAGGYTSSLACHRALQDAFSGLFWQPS
Procedure: The inhibitory activity of the test compounds was assessed by the LANCE TR-FRET assay, which detects the ATP-dependent phosphorylation of an ULight-myelin basic protein (MBP) substrate peptide (100 nM) by CDK7 (10 nM). Briefly, the enzyme reaction was run in reaction buffer (20 mM HEPES (pH 7.5), 10 mM MgCl2, 0.01% Triton x, 100 μM Sodium Orthovanadate, 1 mM DTT). The assay was performed in 384-well plate. The end concentration of the ATP substrate was 1 mM/100 μM, and that of the ULight-MBP substrate peptide was 100 nM, and of CDK7 was 10 nM. Pre-incubation of the compound and enzyme was performed for 60 min at room temperature. After 60 min incubation at room temperature, the reaction was terminated by the addition of 40 mM EDTA and 1 nM Eu-labeled anti-phospho-MBP-binding protein antibody in the buffer. Time-resolved fluorescence (excitation, 320 nm; emission donor, 615 nm; emission acceptor, 665 nm) was monitored by using 2030 multilabel reader Victor5 (PerkinElmer). The readout was calculated as (acceptor counts/donor counts)×1000. The IC50 values were derived by fitting a sigmoidal dose-response curve to a plot of assay readout over inhibitor concentration. All fits were computed with the program Prism 5.03 (Graph Pad Software, San Diego, Calif.).

Sequence of CDK13 (Q14004 whole entry, species assumed): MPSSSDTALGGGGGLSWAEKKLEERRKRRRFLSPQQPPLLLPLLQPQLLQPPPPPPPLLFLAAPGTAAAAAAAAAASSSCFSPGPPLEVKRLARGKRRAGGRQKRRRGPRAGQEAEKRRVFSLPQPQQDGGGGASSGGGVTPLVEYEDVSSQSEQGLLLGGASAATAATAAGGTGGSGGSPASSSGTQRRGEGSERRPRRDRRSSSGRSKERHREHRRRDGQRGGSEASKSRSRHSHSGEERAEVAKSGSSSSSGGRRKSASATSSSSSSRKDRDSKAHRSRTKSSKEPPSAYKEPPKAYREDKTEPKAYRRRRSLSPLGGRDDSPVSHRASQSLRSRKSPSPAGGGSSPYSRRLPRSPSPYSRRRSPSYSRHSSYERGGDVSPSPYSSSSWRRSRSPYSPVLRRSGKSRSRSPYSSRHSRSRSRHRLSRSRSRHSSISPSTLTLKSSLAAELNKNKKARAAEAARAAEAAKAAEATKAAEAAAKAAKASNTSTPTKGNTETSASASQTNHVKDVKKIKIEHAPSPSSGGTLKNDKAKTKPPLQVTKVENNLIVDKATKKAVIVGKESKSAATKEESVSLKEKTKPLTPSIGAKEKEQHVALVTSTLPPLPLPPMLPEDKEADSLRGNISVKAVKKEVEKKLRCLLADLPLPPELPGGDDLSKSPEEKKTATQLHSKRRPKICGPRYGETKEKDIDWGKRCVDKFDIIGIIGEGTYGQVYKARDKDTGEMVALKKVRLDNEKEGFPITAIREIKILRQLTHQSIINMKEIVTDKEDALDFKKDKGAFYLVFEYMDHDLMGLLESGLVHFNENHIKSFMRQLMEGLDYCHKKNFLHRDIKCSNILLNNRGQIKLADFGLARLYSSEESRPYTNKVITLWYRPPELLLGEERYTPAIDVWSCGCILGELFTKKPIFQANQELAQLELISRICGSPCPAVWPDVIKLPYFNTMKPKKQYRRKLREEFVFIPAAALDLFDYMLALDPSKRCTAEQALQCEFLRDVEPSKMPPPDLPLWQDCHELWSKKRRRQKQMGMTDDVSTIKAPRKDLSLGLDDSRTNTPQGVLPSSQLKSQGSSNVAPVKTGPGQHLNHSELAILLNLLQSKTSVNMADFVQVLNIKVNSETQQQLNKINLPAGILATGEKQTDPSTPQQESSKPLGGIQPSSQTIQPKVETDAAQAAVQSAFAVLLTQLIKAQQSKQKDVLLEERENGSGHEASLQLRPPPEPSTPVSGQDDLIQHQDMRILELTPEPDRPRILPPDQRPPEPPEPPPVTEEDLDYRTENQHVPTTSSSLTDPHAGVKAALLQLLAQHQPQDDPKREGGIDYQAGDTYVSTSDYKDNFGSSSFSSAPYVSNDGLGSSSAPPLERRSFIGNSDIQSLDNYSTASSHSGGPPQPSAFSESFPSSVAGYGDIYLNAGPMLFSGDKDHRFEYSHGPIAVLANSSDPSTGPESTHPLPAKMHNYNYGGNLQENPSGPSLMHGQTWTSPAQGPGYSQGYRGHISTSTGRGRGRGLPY
Sequence of CDK13 (O75909 whole entry partner, species assumed): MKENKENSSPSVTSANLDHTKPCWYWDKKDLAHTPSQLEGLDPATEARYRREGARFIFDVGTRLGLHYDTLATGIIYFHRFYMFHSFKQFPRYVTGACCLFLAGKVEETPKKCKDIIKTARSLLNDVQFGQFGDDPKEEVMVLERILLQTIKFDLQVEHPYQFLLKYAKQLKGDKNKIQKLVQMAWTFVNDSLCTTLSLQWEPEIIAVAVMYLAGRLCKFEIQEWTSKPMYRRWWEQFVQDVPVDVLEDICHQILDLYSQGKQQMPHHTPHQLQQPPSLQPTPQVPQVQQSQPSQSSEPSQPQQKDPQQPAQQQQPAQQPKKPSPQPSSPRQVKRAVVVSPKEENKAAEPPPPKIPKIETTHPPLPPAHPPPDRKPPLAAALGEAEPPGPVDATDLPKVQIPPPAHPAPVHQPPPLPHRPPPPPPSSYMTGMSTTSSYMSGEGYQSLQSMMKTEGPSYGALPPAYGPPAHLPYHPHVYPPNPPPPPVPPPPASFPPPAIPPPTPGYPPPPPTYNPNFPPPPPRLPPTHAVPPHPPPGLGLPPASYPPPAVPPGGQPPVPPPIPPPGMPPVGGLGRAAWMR

IC50 [1] [nM]	Kd [2] [nM]	IC50 [3] [nM]	Compound
24	50 to 500	11400	C=CC(=O)Nc1ccc(-c2ccc(C(C)C(=O)Nc3cc(C4CC4)[nH]n3)cc2)cc1 (racemic) [Compound 1, N-(4′-(1-((5-cyclopropyl-1H-pyrazol-3-yl)amino)-1-oxopropan-2-yl)-[1,1′-biphenyl]-4-yl)acrylamide]
16.9	> 500	5450	C=CC(=O)NCc1ccc(-c2ccc(C(C)C(=O)Nc3cc(C4CC4)[nH]n3)cc2)cc1 (racemic) [Compound 9, N-((4′-(1-((5-cyclopropyl-1H-pyrazol-3-yl)amino)-1-oxopropan-2-yl)-[1,1′-biphenyl]-4-yl)methyl)acrylamide]
280	50 to 500	> 10000	C=CC(=O)NCc1ccc(C(C)C(=O)Nc2cc(C3CC3)[nH]n2)cc1 (racemic) [Compound 23, N-(4-(1-((5-cyclopropyl-1H-pyrazol-3-yl)amino)-1-oxopropan-2-yl)benzyl)acrylamide]
18		1900	C=CC(=O)Nc1ccc(-c2ccc(C(C)C(=O)Nc3cc(C4CC4)[nH]n3)cc2)cc1 (single isomer, unassigned) [Compound 3, N-(4′-(1-((5-cyclopropyl-1H-pyrazol-3-yl)amino)-1-oxopropan-2-yl)-[1,1′-biphenyl]-4-yl)acrylamide]
500	50 to 500	> 10000	CC(C(=O)Nc1cc(C2CC2)[nH]n1)c1ccc(-c2ccc(NC(=O)/C=C/CN3CCOCC3)nc2)cc1 (single isomer, unassigned) [Compound 6, (E)-N-(5-(4-(1-((5-cyclopropyl-1H-pyrazol-3-yl)amino)-1-oxopropan-2-yl)phenyl)pyridin-2-yl)-4-morpholinobut-2-enamide]
5	< 50	1020	CC(C(=O)Nc1cc(C2CC2)[nH]n1)c1ccc(-c2ccc(NC(=O)/C=C/CN3CCOCC3)nc2)cc1 (single isomer, unassigned) [Compound 7, (E)-N-(5-(4-(1-((5-cyclopropyl-1H-pyrazol-3-yl)amino)-1-oxopropan-2-yl)phenyl)pyridin-2-yl)-4-morpholinobut-2-enamide]
804	> 500	> 10000	C=CC(=O)NCc1ccc(-c2ccc(C(C)C(=O)Nc3cc(C4CC4)[nH]n3)cc2)cc1 (single isomer, unassigned) [Compound 10, N-((4′-(1-((5-cyclopropyl-1H-pyrazol-3-yl)amino)-1-oxopropan-2-yl)-[1,1′-biphenyl]-4-yl)methyl)acrylamide]
96		2120	C=CC(=O)NCc1ccc(-c2ccc(C(C)C(=O)Nc3cc(C4CC4)[nH]n3)cc2)cc1 (single isomer, unassigned) [Compound 11, N-((4′-(1-((5-cyclopropyl-1H-pyrazol-3-yl)amino)-1-oxopropan-2-yl)-[1,1′-biphenyl]-4-yl)methyl)acrylamide]
2060	> 500	> 10000	CC(C(=O)Nc1cc(C2CC2)[nH]n1)c1ccc(-c2ccc(CNC(=O)/C=C/CN3CCOCC3)nc2)cc1 (single isomer, unassigned) [Compound 13, (E)-N-((5-(4-(1-((5-cyclopropyl-1H-pyrazol-3-yl)amino)-1-oxopropan-2-yl)phenyl)pyridin-2-yl)methyl)-4-morpholinobut-2-enamide]
3.9	< 50	1120	CC(C(=O)Nc1cc(C2CC2)[nH]n1)c1ccc(-c2ccc(CNC(=O)/C=C/CN3CCOCC3)nc2)cc1 (single isomer, unassigned) [Compound 14, (E)-N-((5-(4-(1-((5-cyclopropyl-1H-pyrazol-3-yl)amino)-1-oxopropan-2-yl)phenyl)pyridin-2-yl)methyl)-4-morpholinobut-2-enamide]
212	> 500	> 10000	CC(C(=O)Nc1cc(C2CC2)[nH]n1)c1ccc(-c2ccc(CNC(=O)/C=C/CN3CCOCC3)cc2)cc1 (single isomer, unassigned) [Compound 16, (E)-N-((4′-(1-((5-cyclopropyl-1H-pyrazol-3-yl)amino)-1-oxopropan-2-yl)-[1,1′-biphenyl]-4-yl)methyl)-4-morpholinobut-2-enamide]
53.6	< 50	1560	CC(C(=O)Nc1cc(C2CC2)[nH]n1)c1ccc(-c2ccc(CNC(=O)/C=C/CN3CCOCC3)cc2)cc1 (single isomer, unassigned) [Compound 17, (E)-N-((4′-(1-((5-cyclopropyl-1H-pyrazol-3-yl)amino)-1-oxopropan-2-yl)-[1,1′-biphenyl]-4-yl)methyl)-4-morpholinobut-2-enamide]
236	50 to 500		C=CC(=O)NCc1ccc(C(C)C(=O)Nc2cc(C3CC3)[nH]n2)cc1 (single isomer, unassigned) [Compound 24, N-(4-(1-((5-cyclopropyl-1H-pyrazol-3-yl)amino)-1-oxopropan-2-yl)benzyl)acrylamide]
	> 500		C=CC(=O)NCc1ccc(C(C)C(=O)Nc2cc(C3CC3)[nH]n2)cc1 (single isomer, unassigned) [Compound 25, N-(4-(1-((5-cyclopropyl-1H-pyrazol-3-yl)amino)-1-oxopropan-2-yl)benzyl)acrylamide]
4			C=CC(=O)NCc1ccc(-c2ccc(C(C)C(=O)Nc3cc(C4CC4)[nH]n3)cn2)cn1 (stereo not shown) [Compound 4, N-((5-(1-((5-cyclopropyl-1H-pyrazol-3-yl)amino)-1-oxopropan-2-yl)[2,3′-bipyridin]-6′-yl)methyl)acrylamide]
24		1700	CC(C(=O)Nc1cc(C2CC2)[nH]n1)c1ccc(-c2ccc(NC(=O)/C=C/CN3CCOCC3)nc2)cc1 (stereo not shown) [Compound 5, (E)-N-(5-(4-(1-((5-cyclopropyl-1H-pyrazol-3-yl)amino)-1-oxopropan-2-yl)phenyl)pyridin-2-yl)-4-morpholinobut-2-enamide]
60.8	< 50		CC(C(=O)Nc1cc(C2CC2)[nH]n1)c1ccc(-c2ccc(NC(=O)/C=C/CN3CCOCC3)cc2)cc1 (stereo not shown) [Compound 12, (E)-N-(4′-(1-((5-cyclopropyl-1H-pyrazol-3-yl)amino)-1-oxopropan-2-yl)-[1,1′-biphenyl]-4-yl)-4-morpholinobut-2-enamide]
257	< 50	3660	CC(C(=O)Nc1cc(C2CC2)[nH]n1)c1ccc(-c2ccc(CNC(=O)/C=C/CN3CCOCC3)cc2)cc1 (stereo not shown) [Compound 15, (E)-N-((4′-(1-((5-cyclopropyl-1H-pyrazol-3-yl)amino)-1-oxopropan-2-yl)-[1,1′-biphenyl]-4-yl)methyl)-4-morpholinobut-2-enamide]
13	< 50		C=CC(=O)NC(CC)c1ccc(-c2ccc([C@H](C)C(=O)Nc3cc(C4CC4)[nH]n3)cc2)cn1 (stereo partly drawn) [Compound 19, N-(1-(5-(4-((S)-1-((5-cyclopropyl-1H-pyrazol-3-yl)amino)-1-oxopropan-2-yl)phenyl)pyridin-2-yl)propyl)acrylamide]
328	50 to 500		C=CC(=O)NCc1ccc(C(C)C(=O)Nc2cc(C3CC3)[nH]n2)cn1 (stereo not shown) [Compound 26, N-((5-(1-((5-cyclopropyl-1H-pyrazol-3-yl)amino)-1-oxopropan-2-yl)pyridin-2-yl)methyl)acrylamide]
